Like-named read-outs stand apart in the source and are kept apart here.
What was measured:
Type in all cases: cell-based
[1] = tested on: Ramos cells; assay: In vitro viability assay (WST-8)
Method: (§1) Samples of free tomaymycin derivative or tomaymycin derivative conjugate are added to a 96-well flat bottomed tissue culture plate and titrated using serial dilutions ranging from 1×10^−12 M to 3×10^−7 M. Antigen positive tumor cells or antigen negative tumor cells are added to the wells in such a way that there are triplicate samples for each drug concentration for each cell line. […]
[…] The absorbance in each well of the plates is then measured using the Molecular Devices plate reader at 450 nm. Surviving fraction of cells at each concentration of tomaymycin derivative or conjugate are plotted.
(§2) The cytotoxicity of the compounds and their specificity vs. the conjugates of the invention against MOLT-4, BJAB, HL60/QC, HL60/ATCC and Ramos cell lines were tested. Results are illustrated in FIGS. 1, 2, 3, 6 and 8.

[2] = tested on: HL60/ATCC cells; assay: In vitro viability assay (WST-8)
Method: as §1
(§3) At the end of the incubation period, 20 μl of the tetrazolium reagent WST-8 (2-(2-methoxy-nitrophenyl)-3-(4-nitrophenyl)-5-(2,4-disulfophenyl)-2-tetrazolium, monosodium salt) is added to each well, and the plates are returned to the incubator for 2 hours. The absorbance in each well of the plates is then measured using the Molecular Devices plate reader at 450 nm. Surviving fraction of cells at each concentration of tomaymycin derivative or conjugate are plotted.
as §2

[3] = tested on: HL60/QC cells; assay: In vitro viability assay (WST-8); details: Homo sapiens
Method: (§4) Samples of free tomaymycin derivative or tomaymycin derivative conjugate are added to a 96-well flat bottomed tissue culture plate and titrated using serial dilutions ranging from 1×10^−12 M to 3×10^−7 M. Antigen positive tumor cells or antigen negative tumor cells are added to the wells in such a way that there are triplicate samples for each drug concentration for each cell line. The plates are incubated at 37° C. in an atmosphere of 5% CO2 for 4 days.
as §3, §2

[4] = tested on: PC-3 cells; assay: Continuous exposure clonogenic assay; details: Homo sapiens
Method: (§5) MDA-MB-231 cells were plated at 3000 cells per well in two separate 6-well plates; PC-3 and SK-MEL-28 cells were plated at 2000 cells per well in 2 separate plates. The test article(s) were added to give final concentrations of 0, 5×10^−13, 5×10^−12, 5×10^−11, 5×10^−10 and 5×10^−9 M per well (or similar dosage range) to each plate. For example, when cells are plated in 1 mL, and 1 mL of a 2× concentration of the test compound or conjugate is added to the appropriate wells to give the final desired concentration in 2 mls. The final solution of the test article was made in the same medium as the cell line; therefore, different dilutions of conjugate had to be made for each different cell line. The plates are placed in an incubator at 37° C. in 5% CO2. Cell growth is monitored and when cells in the “0” (control) wells had formed colonies but were not confluent, usually 7 days for these cell lines, the supernatant was removed by aspiration. The cells were washed once with PBS (Phosphate Buffer Solution) and the supernatant aspirated. To each well, 0.5 ml per well of a 0.1% crystal violet/10% formalin/PBS was added. The plates were incubated at room temperature for 10-15 minutes. The supernatant was aspirated and the wells washed 3 times with distilled H2O, and then air dried. Colonies in each well were counted and the number of colonies in each dosed well was divided by the number of colonies in the “0” well to give the surviving fraction. IC50 values were then calculated from the data.

[5] = tested on: MDA-MB-231 cells; assay: Continuous exposure clonogenic assay; details: Homo sapiens
Method: as §5

[6] = tested on: SK-MEL-28 cells; assay: Continuous exposure clonogenic assay; details: Homo sapiens
Method: as §5

[7] = tested on: various cell-lines; assay: In vitro cytotoxicity, cell line not named; details: FIG. 3; IGP08-OMe compared with IGP08
Method: as §4
as §3, with “Surviving fraction of cells at each concentration of tomaymycin derivative or conjugate are plotted.” left out
MDA-MB-231 cells were plated at 3000 cells per well in two separate 6-well plates; PC-3 and SK-MEL-28 cells were plated at 2000 cells per well in 2 separate plates. […] Cell growth is monitored and when cells in the “0” (control) wells had formed colonies but were not confluent, usually 7 days for these cell lines, the supernatant was removed by aspiration. […] Colonies in each well were counted and the number of colonies in each dosed well was divided by the number of colonies in the “0” well to give the surviving fraction. IC50 values were then calculated from the data.

[8] = Homo sapiens, Ramos, read-out: In vitro data (IC50) Ramos
[9] = Homo sapiens, HL-60, read-out: In vitro data (IC50) HL60/ATCC
[10] = HL-60, read-out: In vitro data (IC50) HL60/QC
[11] = PC-3, read-out: In vitro data (IC50) PC-3
[12] = MDA-MB-231, read-out: In vitro data (IC50) MDA-MB-231
[13] = SK-MEL-28, read-out: In vitro data (IC50) SK-MEL-28

Row | Molecule | IC50 [1, 8] [nM] | IC50 [2, 9] [nM] | IC50 [4, 11] [nM] | IC50 [5, 12] [nM] | IC50 [6, 13] [nM] | further results
1 | C=C1C[C@H]2C=Nc3cc(OCc4cc(COc5cc6c(cc5OC)C(=O)N5C/C(=C/C)C[C@H]5C=N6)cc(OCC(=O)OC)c4)c(OC)cc3C(=O)N2C1 | 0.0014 | 0.012 | – | – | – | –
2 | C/C=C1\C[C@H]2C=Nc3cc(OCc4cc(COc5cc6c(cc5OC)C(=O)N5C/C(=C/C)C[C@H]5C=N6)cc(OCCCC(=O)O)c4)c(OC)cc3C(=O)N2C1 | 0.58 | 2 | – | – | – | IC50 [3, 10]: 1.2 nM
3 | C/C=C1\C[C@H]2C=Nc3cc(OCc4cc(C#CCCCC(=O)OC)cc(COc5cc6c(cc5OC)C(=O)N5C/C(=C/C)C[C@H]5C=N6)c4)c(OC)cc3C(=O)N2C1 | 0.0012 | 0.0022 | 0.027 | 0.012 | 0.015 | –
4 | C/C=C1\C[C@H]2C=Nc3cc(OCc4cc(COc5cc6c(cc5OC)C(=O)N5C/C(=C/C)C[C@H]5C=N6)cc(OCCOCCOCCOCCC(=O)OC)c4)c(OC)cc3C(=O)N2C1 | – | 0.012 | 0.0074 | 0.016 | 0.0097 | –
5 | C/C=C1\C[C@H]2C=Nc3cc(OCc4cc(OCCOCCOCCOCCC(=O)OC)cc(COc5cc6c(cc5OC)C(=O)N5C/C(=C/C)C[C@H]5C=N6)n4)c(OC)cc3C(=O)N2C1 | – | – | 0.5 | 0.008 | 0.071 | –
6 | C/C=C1\C[C@H]2C=Nc3cc(OCc4cc(OCCCC(=O)OC)cc(COc5cc6c(cc5OC)C(=O)N5C/C(=C/C)C[C@H]5C=N6)n4)c(OC)cc3C(=O)N2C1 | – | – | 0.011 | 0.0017 | 0.0087 | –
7 | C/C=C1\C[C@H]2C=Nc3cc(OCc4cc(COc5cc6c(cc5OC)C(=O)N5C/C(=C/C)C[C@H]5C=N6)cc(OCCN(C)C(=O)CCC(=O)OC)c4)c(OC)cc3C(=O)N2C1 | – | – | 0.5 | 0.009 | 0.09 | –
8 | C=C1C[C@H]2C=Nc3cc(OCc4cc(CCC(=O)OC)cc(COc5cc6c(cc5OC)C(=O)N5CC(=C)C[C@H]5C=N6)c4)c(OC)cc3C(=O)N2C1 [compound 8] | – | – | – | – | – | In vitro cytotoxicity potency, ester versus acid [7]: higher potency; IC50 ([4]; unconjugated tomaymicine derivatives, PC-3, read-out: In vitro data (IC50) PC-3): 0.027 nM; IC50 ([5]; unconjugated tomaymicine derivatives, MDA-MB-231, read-out: In vitro data (IC50) MDA-MB-231): 0.017 nM; IC50 ([6]; unconjugated tomaymicine derivatives, SK-MEL-28, read-out: In vitro data (IC50) SK-MEL-28): 0.01 nM; IC50 ([1]; Homo sapiens, unconjugated tomaymicine derivatives, Ramos, read-out: In vitro data (IC50) Ramos): 0.008 nM; IC50 ([2]; Homo sapiens, HL-60, unconjugated tomaymicine derivatives, HL60/ATCC, read-out: In vitro data (IC50) HL60/ATCC): 0.004 nM; IC50 ([3]; HL-60, unconjugated tomaymicine derivatives, HL60/QC, read-out: In vitro data (IC50) HL60/QC): 0.0011 nM
9 | C=C1C[C@H]2C=Nc3cc(OCc4cc(CCC(=O)O)cc(COc5cc6c(cc5OC)C(=O)N5CC(=C)C[C@H]5C=N6)c4)c(OC)cc3C(=O)N2C1 [compound 9, 4-(3,5-Bis-[(S)-2-methylidene-7-methoxy-1,2,3,11a-tetrahydro-pyrrolo[2,1c][1,4]benzodiazepin-5-one-8-yloxymethyl]-phenyl)-propanoic acid] | 2.7 | 2.6 | – | – | – | IC50 [3, 10]: 3.5 nM
10 | huMy9-6—3-(2-{2-[2-(3,5-Bis-[(S)-2-eth-(E)-ylidene-7-methoxy-1,2,3,11a-tetrahydro-pyrrolo[2,1c][1,4]benzodiazepin-5-one-8-yloxymethyl]-phenoxy)-ethoxy]-ethoxy}-ethoxy)-propionyl conjugate [ex. 14] | – | – | – | – | – | IC50 ([1]; conjugate, Ramos (Ag−) @ 2000 cells/well, 5 day exposure, WST 4.5 hours, FIG. 23, read-out: ~IC50 Ramos cells): < 10 nM; IC50 ([2]; conjugate, HL60/ATCC (Ag+) @ 5000 cells/well, 7 day exposure, WST 2 hours, FIG. 23, read-out: ~IC50 HL60/ATCC cells): ~0.023 nM
